Laboratory results from the Deep4Chem optical property database.
Values belong to the compound of their own block, whether it stands above or below them.

Assay: solvent given as SMILES

SMILES: COc1ccc(-c2ccc3c(c2)c2cc(-c4ccc(OC)cc4)ccc2n3-c2ccc(C(=O)c3ccc4sc5ccccc5c4c3)cc2)cc1
absorption maximum (in Cc1ccccc1): 366 nm

SMILES: CCC1(CC)c2cc(C#Cc3cc(C#Cc4ccc5c(c4)C(CC)(CC)c4cc(N(c6ccccc6)c6ccccc6)ccc4-5)c4ccc5c(C#Cc6ccc7c(c6)C(CC)(CC)c6cc(N(c8ccccc8)c8ccccc8)ccc6-7)cc(C#Cc6ccc7c(c6)C(CC)(CC)c6cc(N(c8ccccc8)c8ccccc8)ccc6-7)c6ccc3c4c65)ccc2-c2ccc(N(c3ccccc3)c3ccccc3)cc21
absorption maximum (in C1CCCCC1): 500 nm
absorption maximum (in C1CCOC1): 506 nm
absorption maximum (in CCOC(C)=O): 502 nm
absorption maximum (in CN(C)C=O): 506 nm
absorption maximum (in Cc1ccccc1): 503 nm
absorption maximum (in ClC(Cl)Cl): 503 nm
absorption maximum (in ClCCl): 504 nm

SMILES: N#Cc1nc2c3ccc(-n4c5ccccc5c5ccccc54)cc3c3cc(-n4c5ccccc5c5ccccc54)ccc3c2nc1C#N
absorption maximum (in Cc1ccccc1): 442 nm

SMILES: CCCCCCCCOc1ccc(C2=C(c3ccc(OCCCCCCCC)cc3)C(C)(C)c3ccccc32)cc1
absorption maximum (in C1CCCCC1): 281 nm

SMILES: CCCCCCC(CCCCCC)N1C(=O)c2cccc3c(-c4ccc(C#N)cc4)ccc(c23)C1=O
absorption maximum (in CCCCCC): 355.6 nm
absorption maximum (in CCCCCCCCCCCCCC): 356.2 nm
absorption maximum (in CCCCCCCCCCCO): 365.8 nm
absorption maximum (in CCCCO): 367.8 nm
absorption maximum (in CN(C)C=O): 367.8 nm
absorption maximum (in Cc1ccccc1): 364.6 nm
absorption maximum (in ClC(Cl)Cl): 366.4 nm

SMILES: CCCCCCN1C(=O)c2cccc3c(-c4ccc(-c5cc(-c6ccccc6)n(-c6ccccc6)n5)s4)ccc(c23)C1=O
absorption maximum (in ClCCl): 400 nm

SMILES: CCCCCOc1cc2oc(=O)c3c4ccc(N(c5ccccc5)c5ccccc5)cc4c4ccc5cccc6c(c1)c2c3c4c56
absorption maximum (in C1CCOC1): 476 nm

SMILES: Cc1cc(C)n2c1C=C1c3ccccc3C(c3c[nH]c4ccccc34)=[N+]1[B-]2(F)F
absorption maximum (in C1CCOC1): 583 nm
absorption maximum (in CC#N): 575 nm
absorption maximum (in CCCCCC): 580 nm
absorption maximum (in CO): 579 nm
absorption maximum (in Cc1ccccc1): 587 nm
absorption maximum (in ClCCl): 581 nm

SMILES: COc1cc2c(cc1-c1ccc(C(F)(F)F)cc1)Cc1c3c(c4c(c1-2)-c1cc(OC)c(-c2ccc(C(F)(F)F)cc2)cc1C4)C(=O)N(CCC(C)C)C3=O
absorption maximum (in C1CCOC1): 404 nm

SMILES: O=C1/C(=C/C=C/c2cc3c4c(c2)CCCN4CCC3)CC/C1=C\C=C\c1cc2c3c(c1)CCCN3CCC2
absorption maximum (in CC#N): 510 nm
absorption maximum (in CC(C)=O): 515 nm
absorption maximum (in CC(C)O): 535 nm
absorption maximum (in CCCCCC): 457 nm
absorption maximum (in CCCCO): 543 nm
absorption maximum (in CCCO): 541 nm
absorption maximum (in CCO): 538 nm
absorption maximum (in CCOC(C)=O): 495 nm
absorption maximum (in CCOCC): 494 nm
absorption maximum (in CN(C)C=O): 532 nm
absorption maximum (in CO): 523 nm
absorption maximum (in CS(C)=O): 539 nm
absorption maximum (in Cc1ccccc1): 505 nm
absorption maximum (in ClCCl): 529 nm
absorption maximum (in OCC(F)(F)F): 584 nm
absorption maximum (in S=C=S): 530 nm
absorption maximum (in c1ccccc1): 510 nm
absorption maximum (in c1ccncc1): 534 nm

SMILES: CCOC(=O)c1csc2[n+]1[B-](F)(F)OC(c1ccc(N(C)C)cc1)=N2
absorption maximum (in C1CCOC1): 404 nm
absorption maximum (in CC#N): 405 nm
absorption maximum (in Cc1ccccc1): 406 nm
absorption maximum (in ClCCl): 412 nm

SMILES: CCCC1=Cc2nc1ccc1[nH]c(cc1CCC)c1nc(ccc3[nH]c2cc3CCC)C(CCC)=C1
absorption maximum (in Cc1ccccc1): 667 nm

SMILES: N#Cc1c(C#N)c2cc(Cl)c(Cl)cc2c2cc(Cl)c(Cl)cc12
absorption maximum (in ClC(Cl)Cl): 343 nm

SMILES: CCC1(CC)c2cc(B(c3c(C)cc(C)cc3C)c3c(C)cc(C)cc3C)ccc2-c2ccc(N(c3ccccc3)c3ccccc3)cc21
absorption maximum (in C1CCOC1): 400 nm
absorption maximum (in CC#N): 394 nm
absorption maximum (in CC(C)=O): 398 nm
absorption maximum (in CCCCCC): 401 nm
absorption maximum (in CN(C)C=O): 396 nm
absorption maximum (in Cc1ccccc1): 403 nm
absorption maximum (in ClC(Cl)Cl): 402 nm

SMILES: CC1=C(c2ccccc2)C(C)=[N+]2C1=C(c1c(-c3ccccn3)nc3ccccn13)c1c(C)c(-c3ccccc3)c(C)n1[B-]2(F)F
absorption maximum (in ClCCl): 548 nm

SMILES: COc1ccc(C2=C3C(C)=CC(C=Cc4ccc(C(=O)OC5C[C@H]6CCC5(C)C6(C)C)cc4)=[N+]3[B-](F)(F)n3c(C)cc(C)c32)cc1 (some centres not stated)
absorption maximum (in Cc1ccccc1): 568 nm

SMILES: CCCCCCc1ccc(-n2c3[n+](c4c5ccccc5c5ccccc5c42)[B-](C)(C)c2cc(-n4c5ccccc5c5ccccc54)ccc2-3)cc1
absorption maximum (in C1CCOC1): 370 nm
absorption maximum (in CC#N): 369 nm
absorption maximum (in Cc1ccccc1): 375 nm
absorption maximum (in ClCCl): 372 nm

SMILES: COC(=O)c1[nH]c(-c2ccc([N+](=O)[O-])cc2)c2nnc3ccc(OC)cc3c12
absorption maximum (in ClCCl): 436 nm

Next, values leading:

absorption maximum (in CC#N): 489 nm
absorption maximum (in O): 468 nm
SMILES: Nc1n[n+]([O-])c2cc(F)ccc2[n+]1[O-]

absorption maximum (in O): 429 nm
SMILES: N#Cc1c(N2CCCCC2)cc(-c2ccc3c(c2)OCO3)c2c1-c1cccc3cccc-2c13

absorption maximum (in ClCCl): 402 nm
absorption maximum (in O): 509 nm
absorption maximum (in OCC(O)CO): 496 nm
SMILES: C[n+]1ccc(/C=C/c2ccc(N(c3ccccc3)c3ccc(/C=C/c4cc[n+](C)cc4)cc3)cc2)cc1

absorption maximum (in CO): 312 nm
SMILES: O=C(O)c1ccc(-c2nc(-c3ccccc3)c(-c3ccccc3)[nH]2)cc1

absorption maximum (in CC#N): 440 nm
absorption maximum (in ClCCl): 448 nm
SMILES: CC(=O)c1cc(=O)n(C)c2cc(-c3ccc(N(C)C)cc3)sc12

absorption maximum (in CC#N): 618 nm
SMILES: CC(=O)OC[C@H]1O[C@@H](OCC#Cc2ccc(C3=C4C(C)=CC(/C=C/c5ccc([N+](C)(C)C)cc5)=[N+]4[B-](F)(F)n4c(/C=C/c5ccc([N+](C)(C)C)cc5)cc(C)c43)cc2)[C@H](OC(C)=O)C(OC(C)=O)[C@@H]1OC(C)=O (some centres not stated)

absorption maximum (in CC#N): 367 nm
absorption maximum (in ClCCl): 374 nm
SMILES: Cc1cc(O)c(C(=O)/C=C/c2cccc(O)c2)c(=O)o1

absorption maximum (in C1CCCCC1): 361 nm
absorption maximum (in CC#N): 376 nm
absorption maximum (in CCO): 382 nm
SMILES: COc1ccc2c(c1)-c1cc(OC)ccc1C2=O

absorption maximum (in ClCCl): 377 nm
SMILES: CC(C)(C)c1ccc2c(c1)c1ncncc1c1c3ccccc3sc21

absorption maximum (in ClCCl): 429 nm
SMILES: N#Cc1cc(/C=C/c2ccc(/C=C/c3ccc(N(c4ccccc4)c4ccccc4)cc3)c(C#N)c2)ccc1/C=C/c1ccc(N(c2ccccc2)c2ccccc2)cc1

absorption maximum (in CCCCCCC): 449 nm
SMILES: c1ccc2c3c(ccc2c1)-c1c2ccccc2cc2cccc-3c12

absorption maximum (in CS(C)=O): 294 nm
SMILES: Cc1ccc2c(c1)NC(=O)CC(=O)N2

absorption maximum (in CC#N): 636 nm
SMILES: F[B-]1(F)n2c(c(-c3cccs3)c3c2-c2ccccc2CC3)C=C2C(c3cccs3)=C3CCc4ccccc4C3=[N+]21

absorption maximum (in ClC(Cl)Cl): 458 nm
SMILES: N#CC1=CC=CC(C#N)=P1(c1ccccc1)c1ccccc1

absorption maximum (in ClCCl): 341 nm
SMILES: O=c1oc2ccccc2cc1-c1ccc(-c2ccc(-c3cc4ccccc4oc3=O)cc2)cc1

absorption maximum (in CS(C)=O): 365 nm
SMILES: CCOC(=O)C1=C(N)n2c(=O)c3ccccc3c(=O)n2C1c1cccs1 (configuration not stated)

absorption maximum (in C1CCCCC1): 362 nm
absorption maximum (in CC#N): 355 nm
absorption maximum (in CO): 350 nm
absorption maximum (in ClCCl): 357 nm
absorption maximum (in O): 367 nm
SMILES: c1ccc(-c2nc(-c3cccc4ccccc34)n3ccccc23)cc1

absorption maximum (in CC#N): 279 nm
absorption maximum (in CO): 278 nm
SMILES: CN1c2ccccc2CCc2ccccc21

absorption maximum (in ClCCl): 350 nm
SMILES: C(S/C=C/c1ccc(/C=C/SC=C2CCCCC2)cc1)=C1CCCCC1

absorption maximum (in CC#N): 371 nm
SMILES: CN(C)c1ccc(-c2nc3nccnc3n2-c2ccc(N(C)C)cc2)cc1

absorption maximum (in O): 565 nm
SMILES: CC1=CC(C)=[N+]2C1=C(c1ccccc1)c1c(C)cc(/C=C/c3ccc(O)cc3)n1[B-]2(F)F
